From paper PMC6941846 (Bioorganic & medicinal chemistry, 2019)
Read-outs that look alike come from different tables or passages of the source.

Tests used:
DYRK1A [1] = target: T1, DYRK1A (Homo sapiens, UniProt Q13627); test: DYRK1A NFAT luciferase response assay; type: cell-based; settings: for DYRK1A-Luc EC50: HEK293T reporter cells, NFAT-dependent firefly luciferase, 48 h
HEK293T cells [2] = test: Constitutive Renilla luciferase; type: cell-based; settings: for R-Luc CC50: HEK293T cells, constitutive Renilla luciferase drops by 50%, 48 h; for Index (CC50/EC50), Cytotoxicity / Activity Index: R-Luc CC50 / DYRK1A-Luc EC50, HEK293T; for fold reduction of cytotoxicity (R-Luc CC50): compared to OTS167 / parent
MELK [3] = target: T2, MELK (Homo sapiens, UniProt Q14680); settings: FACS-sorted β-cells, vs vehicle; cited from earlier work
HEK293T cells [4] = settings: for reduction in cell number / cells killed: inhibitor 40 nM combined with compound 56 (90 nM or 270 nM)
in vitro = settings: human
468 kinases = test: Kinome SCAN profile; type: binding; settings: 100 nM
DYRK1A [5] = target: T1, DYRK1A; test: Kinome SCAN profile, DYRK1A; type: binding; settings: read-out: DYRK1A residual activity
human β-cells [6] = test: Human islet β-cell replication
MELK [7] = target: T2, MELK; test: MELK kinase binding assay
[8] = Microsome stability assay, mouse liver microsomes; type: in vitro ADME; settings: 1 μM compound, NADPH
[9] = Microsome stability assay, human liver microsomes; type: in vitro ADME; settings: 1 μM compound, NADPH
[10] = Caco-2 permeability assay; type: in vitro ADME; settings: 10 μM, pH 7.4, direction not stated
human β-cells [11] = settings: cited from earlier work

T2 sequence (Q14680 whole entry): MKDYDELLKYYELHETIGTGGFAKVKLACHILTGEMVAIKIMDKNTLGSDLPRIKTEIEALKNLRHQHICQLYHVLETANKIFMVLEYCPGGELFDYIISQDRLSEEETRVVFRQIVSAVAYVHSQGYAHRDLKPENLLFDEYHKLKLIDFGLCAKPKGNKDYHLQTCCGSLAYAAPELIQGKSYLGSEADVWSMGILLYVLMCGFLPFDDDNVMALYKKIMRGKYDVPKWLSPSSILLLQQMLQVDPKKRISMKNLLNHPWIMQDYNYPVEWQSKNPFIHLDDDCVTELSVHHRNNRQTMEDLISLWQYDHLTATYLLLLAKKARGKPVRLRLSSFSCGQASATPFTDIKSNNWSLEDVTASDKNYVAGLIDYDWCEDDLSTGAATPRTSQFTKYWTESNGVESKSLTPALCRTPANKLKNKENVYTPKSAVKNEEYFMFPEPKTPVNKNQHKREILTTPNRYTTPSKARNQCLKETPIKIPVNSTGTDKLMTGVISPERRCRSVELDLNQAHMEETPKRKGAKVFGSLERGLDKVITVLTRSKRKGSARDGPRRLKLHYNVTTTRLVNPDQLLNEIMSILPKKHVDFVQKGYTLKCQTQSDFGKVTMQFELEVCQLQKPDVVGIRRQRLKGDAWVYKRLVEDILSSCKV

CN(C)C[C@H]1CC[C@H](Nc2c(C#N)cnc3ccc(-c4cc(Cl)c(O)c(Cl)c4)nc23)CC1 [Compound 16, 6-(3,5-Dichloro-4-hydroxyphenyl)-4-(((trans)-4-((dimethylamino)methyl)cyclohexyl)amino)-1,5-naphthyridine-3-carbonitrile]
fold reduction in DYRK1A inhibition potency (DYRK1A [1]; compared to OTS167): ~ 9 fold | R-Luc CC50 (HEK293T cells [2]): virtually non-toxic

c1cc(OCCN2CCCCC2)cc(-c2n[nH]c3ccc(-c4nc[nH]n4)cc23)c1 [CC-401]
induction of MELK expression (MELK [3]): 2.6 fold

CCOC(=O)c1cnc2ccc(-c3cc(Cl)c(O)c(Cl)c3)nc2c1N1CCNCC1 [Compound 38, Ethyl 6-(3,5-dichloro-4-hydroxyphenyl)-4-(piperazin-1-yl)-1,5-naphthyridine-3-carboxylate]
DYRK1A-Luc EC50 (DYRK1A [1]): reduced DYRK1A inhibition potency | fold less toxic than butyl amide counterpart (R-Luc CC50) (HEK293T cells [2]; HEK293T): 7 fold | R-Luc CC50 (HEK293T cells [2]): reduced cytotoxicity | Index (CC50/EC50), Cytotoxicity / Activity Index (HEK293T cells [2]): 137

O=C(O)[C@]1(Cc2cccc(Nc3nccs3)n2)CC[C@@H](Oc2cccc(Cl)c2F)CC1 [MK-5108]
cells killed (HEK293T cells [4]; MK 3 μM with 56 at 30 nM, 48 h): 31% | cells killed (HEK293T cells [4]; MK 3 μM with 56 at 90 nM, 48 h): 36% | cells killed (HEK293T cells [4]; MK 3 μM with 56 at 270 nM, 48 h): 34% | CC50 at 48 h (in vitro; HEK293T cells): > 10000 nM

CC(=O)c1cnc2ccc(-c3cc(Cl)c(O)c(Cl)c3)nc2c1N[C@H]1CC[C@H](CN(C)C)CC1 [Compound 5]
kinases inhibited to less than 35% of baseline activity (468 kinases): 189/403 | kinases with <1% residual activity (468 kinases): 69/403 | remaining binding at 0.1 µM (DYRK1A [5]): < 1% | dose range in which β-cell replication occurred (human β-cells [6]): 5 to 40 nM

CCOC(=O)c1cnc2ccc(-c3ccncc3)nc2c1N[C@H]1CC[C@H](CN(C)C)CC1 [Compound 56, Ethyl 4-(((trans)-4-((dimethylamino)methyl)cyclohexyl)amino)-6-(pyridin-4-yl)-1,5-naphthyridine-3-carboxylate]
Kd (MELK [7]): 15 nM | MLM t1/2 [8]: readily metabolized | cytotoxicity (cell number) (HEK293T cells [4]; 56 alone at 30 nM, 90 nM or 270 nM, 48 h): no cytotoxicity | HLM t1/2 [9]: readily metabolized | Caco-2 [10]: 4.03 1 x 10^−6 cm/s

CCOC(=O)c1cnc2ccc(-c3cc(Cl)c(O)c(Cl)c3)nc2c1N1CCOCC1 [Compound 37, Ethyl 6-(3,5-dichloro-4-hydroxyphenyl)-4-morpholino-1,5-naphthyridine-3-carboxylate]
DYRK1A-Luc EC50 (DYRK1A [1]): reduced DYRK1A inhibition potency | R-Luc CC50 (HEK293T cells [2]): reduced cytotoxicity

CCNC(=O)c1cnc2ccc(-c3ccnc(N)c3)nc2c1N[C@H]1CC[C@H](CN(C)C)CC1 [Compound 60, 6-(2-Aminopyridin-4-yl)-4-(((trans)-4-((dimethylamino)methyl)cyclohexyl)amino)-N-ethyl-1,5-naphthyridine-3-carboxamide]
DYRK1A-Luc EC50 (DYRK1A [1]): maintained good DYRK1A activity

CCOC(=O)c1cnc2ccc(-c3cc(Cl)c(O)c(Cl)c3)nc2c1N[C@H]1CC[C@H](C)CC1 [Compound 32, Ethyl 6-(3,5-dichloro-4-hydroxyphenyl)-4-(((trans)-4-methylcyclohexyl)amino)-1,5-naphthyridine-3-carboxylate]
DYRK1A-Luc EC50 (DYRK1A [1]): eliminated cellular activity

CCOC(=O)c1cnc2ccc(-c3cc(Cl)c(O)c(Cl)c3)nc2c1Nc1ccc(CN(C)C)cc1 [Compound 27, Ethyl 6-(3,5-dichloro-4-hydroxyphenyl)-4-((4-((dimethylamino)methyl)phenyl)amino)-1,5-naphthyridine-3-carboxylate]
DYRK1A-Luc EC50 (DYRK1A [1]): maintained DYRK1A inhibition potency | fold reduction of cytotoxicity (R-Luc CC50) (HEK293T cells [2]; HEK293T): ~ 60 fold

O=C(NC[C@H](O)CO)c1ccncc1Nc1ccc(I)cc1F [AS-703026]
cells killed (HEK293T cells [4]; inhibitor 10 uM combined with 56 (90 nM), 48 h): 6%

CCCCNC(=O)c1cnc2ccc(-c3cc(Cl)c(O)c(Cl)c3)nc2c1N[C@H]1CC[C@H](C(=O)N2CCOCC2)CC1 [Compound 47]
Caco-2 [10]: 9.1 1 x 10^−6 cm/s

CCOC(=O)c1cnc2ccc(-c3ccnc(N)c3)nc2c1N[C@H]1CC[C@H](CN2CCOCC2)CC1 [Compound 63, Ethyl 6-(2-aminopyridin-4-yl)-4-(((trans)-4-(morpholinomethyl)cyclohexyl)amino)-1,5-naphthyridine-3-carboxylate]
MLM t1/2 [8]: readily metabolized | HLM t1/2 [9]: readily metabolized | Caco-2 [10]: 2.7 1 x 10^−6 cm/s

COc1ccc2c(c1)[nH]c1c(C)nccc12 [Harmine, harmine]
human β-cell replication induction-potency [ECmin] (human β-cells [11]): ~ 3,000 nM

CCOC(=O)c1cnc2ccc(-c3cc(C)c(O)c(C)c3)nc2c1N[C@H]1CC[C@H](CN(C)C)CC1 [Compound 52, Ethyl 4-(((trans)-4-((dimethylamino)methyl)cyclohexyl)amino)-6-(4-hydroxy-3,5-dimethylphenyl)-1,5-naphthyridine-3-carboxylate]
Index (CC50/EC50), Cytotoxicity / Activity Index (HEK293T cells [2]): > 842

CCOC(=O)c1cnc2ccc(-c3cc(Cl)c(O)c(Cl)c3)nc2c1N[C@H]1CC[C@H](C(=O)N(C)C)CC1 [Compound 42, Ethyl 6-(3,5-dichloro-4-hydroxyphenyl)-4-(((trans)-4-(dimethylcarbamoyl)cyclohexyl)amino)-1,5-naphthyridine-3-carboxylate]
Caco-2 [10]: 0.12 1 x 10^−6 cm/s

CCOC(=O)c1cnc2ccc(-c3cc(Cl)c(O)c(Cl)c3)nc2c1N[C@H]1CC[C@H](CN(C)C)CC1 [Compound 15, Ethyl-6-(3,5-dichloro-4-hydroxyphenyl)-4-(((trans)-4 ((dimethylamino)methyl)cyclohexyl)amino)-1,5-naphthyridine-3-carboxylate]
fold reduction of cytotoxicity (R-Luc CC50) (HEK293T cells [2]; HEK293T): ~ 3 fold

Nc1ncnc2c1c(I)cn2[C@@H]1O[C@H](CO)[C@@H](O)[C@H]1O [Compound 5-IT, 5-iodotubercidin]
human β-cell replication induction-potency [ECmin] (human β-cells [11]): ~ 100 nM

O=C(O)c1ccc(Nc2ncc3c(n2)-c2ccc(Cl)cc2C(c2c(F)cccc2F)=NC3)cc1 [MLN-8054]
reduction in cell number / cells killed (HEK293T cells [4]; 48 h): 50% | CC50 at 48 h (in vitro): 55.1 nM

CC(C)Oc1ccc(F)c(-c2cnc(N)c(C(=O)Nc3cnccc3N3CCC[C@@H](C(=O)O)C3)n2)c1 [GNF-4877]
human β-cell replication induction-potency [ECmin] (human β-cells [11]): ~ 100 nM

Cn1c(=O)c(F)c(Nc2ccc(I)cc2F)c2c(=O)n(C[C@@H](O)CO)cnc21 [TAK-733]
cytotoxicity in combination (HEK293T cells [4]; TAK-733 10 uM combined with 56 (30 nM, 90 nM, or 270 nM)): did not exhibit cytotoxicity | cells killed (HEK293T cells [4]; inhibitor alone at 10 uM, 48 h): did not exhibit cytotoxicity

CCN(CCO)CCCOc1ccc2c(Nc3cc(CC(=O)Nc4cccc(F)c4)[nH]n3)ncnc2c1 [AZD-1152-HQPA]
reduction in cell number / cells killed (HEK293T cells [4]; 48 h): 67% | CC50 at 48 h (in vitro): 38.9 nM

CCOC(=O)c1cnc2ccc(-c3cc(Cl)c(O)c(Cl)c3)nc2c1N[C@H]1CC[C@H](CC(N)=O)CC1 [Compound 49, Ethyl 4-(((trans)-4-(2-amino-2-oxoethyl)cyclohexyl)amino)-6-(3,5-dichloro-4-hydroxyphenyl)-1,5-naphthyridine-3-carboxylate]
Caco-2 [10]: 0.01 1 x 10^−6 cm/s

CCOC(=O)c1cnc2ccc(-c3cc(Cl)c(O)c(Cl)c3)nc2c1N1CCC(C)CC1 [Compound 36, Ethyl 6-(3,5-dichloro-4-hydroxyphenyl)-4-(4-methylpiperidin-1-yl)-1,5-naphthyridine-3-carboxylate]
DYRK1A-Luc EC50 (DYRK1A [1]): reduced DYRK1A inhibition potency | R-Luc CC50 (HEK293T cells [2]): reduced cytotoxicity

CCOC(=O)c1cnc2ccc(-c3cc(Cl)c(O)c(Cl)c3)nc2c1N1CCCCC1 [Compound 35, Ethyl 6-(3,5-dichloro-4-hydroxyphenyl)-4-(piperidin-1-yl)-1,5-naphthyridine-3-carboxylate]
DYRK1A-Luc EC50 (DYRK1A [1]): reduced DYRK1A inhibition potency | R-Luc CC50 (HEK293T cells [2]): reduced cytotoxicity

CCOC(=O)c1cnc2ccc(-c3cc(Cl)c(O)c(Cl)c3)nc2c1NC1CCN(C)CC1 [Compound 34, Ethyl 6-(3,5-dichloro-4-hydroxyphenyl)-4-((1-methylpiperidin-4-yl)amino)-1,5-naphthyridine-3-carboxylate]
fold increase in the Cytotoxicity / Activity Index (HEK293T cells [2]; compared to OTS167): ~ 13 fold | fold reduction of cytotoxicity (R-Luc CC50) (HEK293T cells [2]; HEK293T): ~ 16 fold | Caco-2 [10]: 4.6 1 x 10^−6 cm/s

CCOC(=O)c1cnc2ccc(-c3cc(Cl)cc(Cl)c3)nc2c1N[C@H]1CC[C@H](CN(C)C)CC1 [Compound 50, Ethyl 6-(3,5-dichlorophenyl)-4-(((trans)-4-((dimethylamino)methyl)cyclohexyl)amino)-1,5-naphthyridine-3-carboxylate]
DYRK1A-Luc EC50 (DYRK1A [1]): abrogated DYRK1A-inhibition
